Like-named read-outs stand apart in the source and are kept apart here.

The source of these data is article PMC10110893, “[…]-derived synthetic cannabinoids inhibit T-type calcium channels with divergent effects on seizures in rodent models of epilepsy” (Frontiers in Physiology, 2023).

One data set addresses T1, human Cav3.1 (Homo sapiens, UniProt O43497).
T1 construct: expressed in transfected cells; host or cells: HEK293 FlpIn T-Rex cells (Invitrogen)
As to the kind of experiment: FLIPR calcium flux assay, Cav3.1. Format: cell-based. As to the method: HEK293 FlpIn T-Rex cells (Invitrogen, CA, United States) stably expressing human Cav3.1, Cav3.2, or Cav3.3 were maintained in Dulbecco’s Modified Eagle Medium (DMEM) supplemented with 10% foetal bovine serum (FBS), 1% penicillin-streptomycin (P/S) at 37°C, and 5% CO2 as previously described ([Bladen et al., 2021]; [Udoh et al., 2022]). Hygromycin (80 μg/mL) and blasticidin (15 μg/mL) were used as selection antibiotics and cells were passaged at 80% confluency. For experiments, cells were resuspended in Leibovitz’s L-15 media (containing 1% FBS, 1% P/S, 15 mM glucose, 2 μg/mL tetracycline), plated in black, clear-bottomed poly-D-lysine-coated 96-well plates (90 μL) (Corning, NY, United States), and incubated overnight in ambient air at 37°C. All compounds tested in cellular assays were prepared as stock solutions in DMSO and final DMSO concentration was 0.1%.
Intracellular calcium flux was measured using a fluorometric imaging plate-reader (FLIPR) Calcium 5 Assay Kit and FlexStation 3 Microplate Reader (Molecular Devices, San Jose, United States). Calcium 5 dye (90 μL) prepared in low potassium HBSS (Thermo Fisher Scientific) containing (in mM) 145 NaCl, 22 HEPES, 0.338 Na2HPO4, 4.17 NaHCO3, 0.441 KH2PO4, 0.407 MgSO4, 0.493 MgCl2, 1.26 CaCl2, 5.56 glucose, and […] with pH 7.4 was applied to each well and incubated for 1 h at 37°C, ambient air prior to testing.
Fluorescence readings were taken at 2 s intervals (λ excitation = 485 nm, λ emission = 525 nm). Following 2 min baseline reading, 20 μL of SB2193, SB2193F, or NNC 55-0396 (10 nM—10 μM) was added to cells and read for 5 min, then CaCl2 (10 mM) was added and read for 3 min. Baseline fluorescence averaged over the 20 s interval preceding CaCl2 addition was subtracted and normalized to the vehicle response. Changes in fluorescence were measured in relative fluorescence units (RFU). All compounds were assayed in ≥ five independent experiments (n = 5–8) performed in duplicate. Order of compound addition and location on the plate were varied between replicates. Data was fit to a four-parameter non-linear dose-response curve using GraphPad Prism 8.2.0 software (La Jolla, United States) to determine IC50 values.

Data set [1] can be described thus: Pharmacokinetics in mouse plasma and brain after single i.p. injection. As to conditions: both sexes, 10 mg/kg i.p.; for AUC: wildtype F1, mouse, in vivo, 10 mg/kg. Format: in vivo. As to the method: SB2193 and SB2193F were prepared in ethanol-Tween 80%–0.9% saline (1:1:18 ratio) and valproic acid in 0.9% saline. All doses were completely soluble in this vehicle except for the 100 mg/kg SB2193 dose, which was a suspension.
Male and female wildtype F1 mice aged 21–28 days postnatal received a single i. p. injection of 10 mg/kg SB2193 or SB2193F. At selected timepoints (15–240 min), mice were anesthetised with isoflurane, blood was collected via cardiac puncture and whole brains were harvested. Brains were snap frozen on dry ice, and blood plasma was isolated via centrifugation (4,000 g for 10 min, 4^○C). Brain and plasma samples were stored at −80°C until assayed.
Plasma samples (50 μL) were spiked with an internal standard (diazepam) and vortexed with 1 M NaOH (50 μL) and methyl tert-butyl ether (1 mL) to achieve protein precipitation. The organic layer was isolated by centrifugation (4,000 g for 3 min) before being frozen for 60 min at −80°C, evaporated to dryness using N2, and reconstituted in 30% acetonitrile and 0.1% formic acid in water for analysis. Brain hemispheres were homogenised in a 10x w/v 1:1 methanol-water solution using a Biospec Tissue-Tearor (Bartlesville, United States) and centrifuged at 20,000 g for 30 min at 4°C. Supernatant (100 μL) was collected and prepared following the same method as plasma.
SB2193 and SB2193F concentrations in brain and plasma samples were assessed by high performance liquid chromatography-tandem mass spectrometry (HPLC-MS/MS) using a Shimadzu Nexera liquid chromatograph coupled with a Shimadzu 8,030 triple quadrupole mass spectrometer (Kyoto, Japan). Samples were run through a Zorbax C18 HPLC Column equipped with a Zorbax Eclipse XDB-C8 guard column (2.1 × 50 mm, 3.5 μm particle size; Agilent, Santa Clara, United States) with an injection volume of 10 μL using a gradient elution. Mobile phases of acetonitrile and 0.1% formic acid in water were delivered at a flow rate of 0.6 mL/min over 4.16 min, with a stepwise adjustment of mobile phase concentration gradient over time to optimise ion separation.
Quantification was achieved by comparing experimental samples to plasma and brain standards prepared with known concentrations of SB2193 or SB2193F. Samples were quantified against a 7-point standard curve (R ^2 > 0.98 for both analytes).
Concentrations of SB2193 or SB2193F in plasma and brain at each timepoint were averaged and concentration-time curves were generated using GraphPad Prism. Pharmacokinetic parameters were calculated using non-compartmental analysis. The linear-log trapezoidal method was used to calculate drug exposure (area under the curve, AUC) using equations previously described ([Hawkins et al., 2017]).

The test system of data set [2] is 6 Hz-induced seizures in Swiss mice. As to the kind of experiment: 6 Hz seizure model in mice. Format: in vivo, mouse. As to the method: Swiss outbred mice used in 6 Hz seizure experiments were purchased from Australian Resources Centre (stock ARC(S); Canning Vale, Australia) and single housed for 1 week prior to experimentation to prevent fighting.
6 Hz seizures were induced in Swiss male mice (9–10 weeks old) using an Ugo Basile electroconvulsive therapy unit (Model 57,800; Gemonio, Italy). Mice were pre-treated with vehicle, SB2193 (10 mg/kg, 30 mg/kg, 100 mg/kg) or valproic acid (300 mg/kg) via i.p. injection 15 min before seizure induction based on the time-to-peak brain concentration determined in pharmacokinetic studies. […] A drop of 0.5% tetracaine was applied to both corneas immediately following the i.p. injection to provide local anaesthesia. Immediately prior to the electrical stimulation, saline was applied to each cornea to ensure electrical conductivity. Corneal electroshocks were administered at 44 mA, 6 Hz, 3 s shock duration, with a […] rectangular pulse width. Mice were shocked and scored by an observer blinded to treatment for the presence of twitching of the vibrissae, stun, myoclonus, rearing, forelimb clonus, and/or Straub tail. […] The ED50 for SB2193 was calculated using computer-assisted log-probit linear regression analysis ([Litchfield and Wilcoxon, 1949]). A χ^2 test was performed to assess statistical significance.

Setting [3] is: wildtype F1, in vivo, ip, mouse plasma.

T1 sequence (O43497 whole entry): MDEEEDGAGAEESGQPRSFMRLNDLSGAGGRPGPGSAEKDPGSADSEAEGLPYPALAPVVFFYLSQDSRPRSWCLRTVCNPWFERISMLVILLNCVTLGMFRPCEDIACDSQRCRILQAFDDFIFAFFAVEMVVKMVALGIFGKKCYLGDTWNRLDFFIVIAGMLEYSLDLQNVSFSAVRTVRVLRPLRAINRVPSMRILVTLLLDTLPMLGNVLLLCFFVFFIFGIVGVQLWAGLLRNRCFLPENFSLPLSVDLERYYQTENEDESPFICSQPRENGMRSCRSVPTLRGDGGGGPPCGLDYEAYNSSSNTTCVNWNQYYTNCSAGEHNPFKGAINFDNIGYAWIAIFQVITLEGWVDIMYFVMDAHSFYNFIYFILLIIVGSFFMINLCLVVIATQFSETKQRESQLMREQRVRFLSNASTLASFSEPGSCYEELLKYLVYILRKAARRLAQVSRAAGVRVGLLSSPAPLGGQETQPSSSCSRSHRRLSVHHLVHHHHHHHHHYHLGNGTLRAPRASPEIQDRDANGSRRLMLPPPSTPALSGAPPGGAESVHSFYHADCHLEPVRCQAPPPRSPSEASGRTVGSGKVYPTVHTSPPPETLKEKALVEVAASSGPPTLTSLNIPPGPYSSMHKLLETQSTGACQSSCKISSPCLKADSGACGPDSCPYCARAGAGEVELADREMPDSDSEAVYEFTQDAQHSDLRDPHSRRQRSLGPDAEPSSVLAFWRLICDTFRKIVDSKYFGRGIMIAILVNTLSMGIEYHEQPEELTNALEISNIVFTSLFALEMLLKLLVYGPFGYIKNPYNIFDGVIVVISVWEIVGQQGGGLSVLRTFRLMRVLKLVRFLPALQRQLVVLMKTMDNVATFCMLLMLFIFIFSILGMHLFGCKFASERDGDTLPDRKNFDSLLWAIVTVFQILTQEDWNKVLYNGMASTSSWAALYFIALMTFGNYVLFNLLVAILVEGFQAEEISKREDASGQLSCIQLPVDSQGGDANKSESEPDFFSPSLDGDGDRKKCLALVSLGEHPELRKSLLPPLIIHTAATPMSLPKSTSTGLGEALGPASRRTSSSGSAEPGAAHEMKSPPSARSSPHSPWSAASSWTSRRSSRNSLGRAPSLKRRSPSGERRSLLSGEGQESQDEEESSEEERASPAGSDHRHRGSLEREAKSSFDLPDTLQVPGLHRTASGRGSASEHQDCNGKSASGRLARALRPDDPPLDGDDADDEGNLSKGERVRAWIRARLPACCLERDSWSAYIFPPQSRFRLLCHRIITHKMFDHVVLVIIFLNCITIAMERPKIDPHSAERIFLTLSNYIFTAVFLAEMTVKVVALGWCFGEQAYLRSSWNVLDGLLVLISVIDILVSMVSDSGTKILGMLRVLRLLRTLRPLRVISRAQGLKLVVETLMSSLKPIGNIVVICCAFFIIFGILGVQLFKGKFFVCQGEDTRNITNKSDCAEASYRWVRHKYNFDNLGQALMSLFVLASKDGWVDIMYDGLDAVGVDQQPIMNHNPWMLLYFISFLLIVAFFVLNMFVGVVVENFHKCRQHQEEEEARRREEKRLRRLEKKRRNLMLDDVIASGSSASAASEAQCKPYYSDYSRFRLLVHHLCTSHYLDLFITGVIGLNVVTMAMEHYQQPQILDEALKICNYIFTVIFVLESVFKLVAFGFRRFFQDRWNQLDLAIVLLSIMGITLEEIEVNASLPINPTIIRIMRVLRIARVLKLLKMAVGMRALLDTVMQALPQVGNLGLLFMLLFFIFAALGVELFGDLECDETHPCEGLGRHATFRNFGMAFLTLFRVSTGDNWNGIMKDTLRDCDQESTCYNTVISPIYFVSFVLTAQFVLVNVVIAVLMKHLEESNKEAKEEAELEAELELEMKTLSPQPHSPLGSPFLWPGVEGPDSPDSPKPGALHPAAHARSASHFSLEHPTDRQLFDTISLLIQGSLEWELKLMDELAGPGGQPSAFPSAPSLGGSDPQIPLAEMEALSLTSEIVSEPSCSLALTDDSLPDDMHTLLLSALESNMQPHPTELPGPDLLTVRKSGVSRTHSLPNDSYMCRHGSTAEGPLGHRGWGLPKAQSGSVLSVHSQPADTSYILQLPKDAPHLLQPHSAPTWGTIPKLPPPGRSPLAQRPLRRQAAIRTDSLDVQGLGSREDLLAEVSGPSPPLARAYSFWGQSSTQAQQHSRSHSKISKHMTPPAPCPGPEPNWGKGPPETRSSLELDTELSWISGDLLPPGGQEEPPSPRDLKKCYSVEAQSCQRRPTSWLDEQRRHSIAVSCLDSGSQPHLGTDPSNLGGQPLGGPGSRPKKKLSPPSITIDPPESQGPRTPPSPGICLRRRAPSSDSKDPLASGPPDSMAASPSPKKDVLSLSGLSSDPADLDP

For `CCCCCn1cc(C(=O)N2CCN(C(=O)OC(C)(C)C)CC2)c2ccccc21` [SB2193], the IC50 at human Cav3.1 was found to be 750 nM. The Tmax in data set [1] (setting [3]) was at most 15 min; in data set [1] (wildtype F1, ip, mouse brain), at most 15 min. In addition, the half-life in data set [1] (setting [3]) was 29 min; in data set [1] (wildtype F1, ip, mouse brain) it was 28 min. In addition, the Cmax is 750 ± 50 nM in data set [1] (wildtype F1, in vivo, ip, mouse plasma, read-out: Cmax); 0.3 ± 0.02 µg/mL in data set [1] (wildtype F1, in vivo, ip, mouse plasma, read-out: Cmax (μg/mL)); 3000 ± 1000 nM in data set [1] (wildtype F1, ip, mouse brain, read-out: Cmax); 1.2 ± 0.4 µg/mL in data set [1] (wildtype F1, ip, mouse brain, read-out: Cmax (μg/mL)). For the same molecule, the Kp in data set [1] (wildtype F1, in vivo, ip, mouse, read-out: brain-plasma ratio) was determined as 2.7. Moreover, the AUC in data set [1] (ip, mouse brain, brain concentration converted assuming density of 1 g/mL) was 583 ng·h/mL; in data set [1] (ip, mouse plasma) it was 217 ng·h/mL. The “percentage of mice protected from seizures compared to vehicle” value in data set [2] (100 mg/kg i.p., 15 min before 6 Hz 44 mA stimulation, n = 10) is on record as “significantly increased”. Besides, the ED50 in data set [2] (Mus musculus, ip, log-probit analysis, estimated) was about 120 mg/kg.
